According to patent publication US20080125432A1 (Devgen NV, priority 2004, published 2008):
pIC50: −log10 of the molar value. Where two headings read alike, the source gives them in different places.

Columns and labels:
human Kv4.3 [1] = target: T1, human Kv4.3 (Homo sapiens, UniProt Q9UK17); assay: C. elegans based high-throughput screen for Kv4.3 modulators (pharynx pumping, Calcein AM uptake), transgenic strain UG1755; type: in vivo; settings: for Ratio N2/Kv4.3: EC50 on N2 divided by EC50 on the Kv4.3 expressing strain, cut-off 1.8; for EC50: transgenic strain UG1755 expressing human Kv4.3, read-out: EC50 (μM) Kv4.3 worm
T1 construct: expressed in transfected cells; host or cells: transgenic C. elegans strain UG1755 (N2 injected with plasmid pGV8, integrated array)
T1 sequence (Q9UK17 1-655): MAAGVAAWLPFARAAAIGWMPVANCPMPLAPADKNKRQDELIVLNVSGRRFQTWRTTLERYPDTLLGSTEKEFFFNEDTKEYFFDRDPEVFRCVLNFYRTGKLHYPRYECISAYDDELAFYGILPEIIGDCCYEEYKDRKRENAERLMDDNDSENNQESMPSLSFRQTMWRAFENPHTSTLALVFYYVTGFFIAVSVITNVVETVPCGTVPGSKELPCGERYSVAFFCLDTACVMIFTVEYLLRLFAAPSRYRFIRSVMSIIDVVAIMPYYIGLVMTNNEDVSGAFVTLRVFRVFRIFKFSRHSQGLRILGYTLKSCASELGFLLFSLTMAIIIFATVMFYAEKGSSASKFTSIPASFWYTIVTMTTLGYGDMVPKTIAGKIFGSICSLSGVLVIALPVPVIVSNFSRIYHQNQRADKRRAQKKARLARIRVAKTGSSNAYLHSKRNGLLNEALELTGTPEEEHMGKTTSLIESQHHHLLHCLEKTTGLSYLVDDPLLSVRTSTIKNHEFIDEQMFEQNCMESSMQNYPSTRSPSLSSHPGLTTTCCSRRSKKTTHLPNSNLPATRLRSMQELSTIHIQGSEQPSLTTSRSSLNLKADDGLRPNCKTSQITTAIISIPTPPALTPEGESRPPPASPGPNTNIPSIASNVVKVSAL
Excerpt: A C. elegans based high-throughput screen for Kv4.3 modulators has been used to establish an in vivo SAR (structure-activity relationships: the effect of chemical structure on biological activity) on Kv4.3 for the compounds according to the present invention.
This assay has employed a stable transgenic C. elegans strain that functionally expressed human Kv4.3 in the pharynx and a visible selection GFP maker in body-wall muscle.
The pharynx is the feeding organ of C. elegans and contracts rhythmically 3-4 times per second. The pharynx contraction is controlled by the nervous system via action potentials similar to the human myocyte and can thus be used to study human ion channel physiology in vivo in C. elegans.
Introducing the human Kv4.3 channel into the C. elegans pharynx influences the C. elegans action potential in a characteristic fashion. The additional number of potassium channels increases potassium ion efflux, enhances re-polarization and thereby shortens the action potential duration. […] The shortened action potentials of the C. elegans pharynx resulting from expression of human Kv4.3, changes the pharynx contraction-relaxation cycle and consequently reduces the pumping/feeding in these transgenic animals. This change of pumping is an end-point amenable to high-throughput screening technology. The pumping end-point can be technically translated into a high-throughput read-out by the use of a pro-fluorescent dye. The pro-fluorescent dye is taken up by C. elegans depending on its pumping activity and converted into a fluorescent dye by enzymes located in its intestines. After a defined incubation period, the change of fluorescence intensity in the intestine can be measured with a plate reader.
(§1) The screening of the compounds according to the present invention has been performed in the C. elegans based high-throughput screen for Kv4.3 modulators described above. The method for testing the activity on human Kv4.3 of the compounds according to the invention with C. elegans strains expressing human Kv4.3 for their activity is the same as the method described in WO 03/097682. The method for testing the compounds on wild-type C. elegans strains not expressing human Kv4.3 is the same as the method described in WO 00/63427. Briefly, UG1755 animals have been grown in large numbers and staged young adults (no or only few eggs inside the uterus) have been harvested on the day of screening. Approximately 125 animals in 80 μl buffer have been dispensed per well of a “U shaped 96-well compound plate The compound plate contained already compound material at a final concentration of 30 μM in 0.3% DMSO. After one hour incubation 10 μl of the fluorescent label Calcein AM (CAM) have been added to achieve a final concentration of 5 μM CAM and 0.8% DMSO. After another four hours of incubation at 20° C., the drinking of C. elegans animals (or the “reaction 8 measured by the uptake of CAM) has been stopped by adding 10 μl of a 60 μM ivermectin solution. The fluorescence intensity (counts per second) has been measured 40 minutes after adding ivermectin with the Wallac plate reader at a wavelength of 535 nm (after excitation at 485 nm).
The active compounds have been identified and confirmed by dose-response analysis. An EC50 has been calculated and the results are listed under Table 3. Dose-response curves have been obtained at concentrations of 30 μM. EC50 has been calculated using XLfit 2.09 software package.

[2] = test system: C. elegans wild-type strain N2; assay: Same C. elegans pumping assay format using wild-type strain N2; type: in vivo; settings: read-out: EC50 (μM) Wild type worm N2
Excerpt: as §1
These compounds have been also tested in the same assay format using a C. elegans wild-type strain N2 and the corresponding EC50 has been calculated. The ratio of the EC50s obtained for a compound on the two strains (transgenic expressing human Kv4.3 and wild-type) gives an indication on whether said compound is acting on human Kv4.3. […]

[3] = target: T2, human Kv4.3/KChIP2.2 potassium channel (Homo sapiens, UniProt Q9UK17); assay: Whole cell patch clamp, CHO-K1 cells stably expressing human Kv4.3/KChIP2.2; type: cell-based; settings: Kv4.3 mediated current, charge; patch clamp; read-out: Kv4.3 charge IC50
T2 construct: expressed in transfected cells
T2 sequence (Q9UK17 1-655): T1 sequence (Q9UK17 1-655)

human Kv4.3 [4] = target: T1, human Kv4.3; assay: Electropharyngeogram (EPG) recording on dissected pharynxes of transgenic C. elegans strain UG1755
Experimental: The method to describe the construction of a transgenic C. elegans strain expressing human Kv4.3 has been described in WO 03/097682. Briefly, the actual used strain UG1755 has been generated by microinjection into the gonad of a wild-type strain N2 with a mix of 5 ng/μl plasmid pGV8 (human Kv4.3), 20 ng/μl pDW2821 (GFP-marker) and 40 ng/ul genomic C. elegans DNA. Transgenic animals have been isolated and submitted to integration of the extra-chromosomal array into the genome of C. elegans. A line with 50% transmission of the functional expressed human Kv4.3 has been mutagenized with gamma irradiation using a Cobalt source. About 12000 F2 animals have been singled out and their progeny has been screened for the 100% transmission of the GFP marker. Lines with 100% transmission of GFP have been considered as potentially integrated. These lines have been further tested and out-crossed with N2 strain two-times. All lines obtained have been tested for viability, GFP and human Kv4.3 expression. At the end of a selection process, UG1755 was identified as most suitable C. elegans strain amenable to high throughput screening (HTS). […] Briefly, dissected pharynxes of UG1755 C. elegans animals have been prepared and Electropharyngeograms (EPGs) have been recorded using an Axopatch-1D amplifier (Axon instruments). […] The number of ultra short EPGs (10-20 ms) and normal EPGs (100-200 ms) has been analyzed and given as ratio in percentage. […] In addition, standard qRT-PCR confirmed the presence of the human Kv4.3 transgene in UG1755 as well as human Kv4.3 protein has been detected with the human Kv4.3 antibody P 0358 in the pharynx of UG1755 animals.
Introducing the human Kv4.3 channel into the C. elegans pharynx influences the C. elegans action potential in a characteristic fashion. […] The pumping end-point can be technically translated into a high-throughput read-out by the use of a pro-fluorescent dye. […] After a defined incubation period, the change of fluorescence intensity in the intestine can be measured with a plate reader.

Molecule	Ratio N2/Kv4.3 (human Kv4.3 [1])	EC50 (human Kv4.3 [1])	EC50 ([2]; Caenorhabditis elegans)	pIC50 [3]	ultra short action potentials of the human Kv4.3 transgenic C. elegans pharynx (human Kv4.3 [4])	After Application of Compound Ratio Ultra short to Normal EPGs in % (human Kv4.3 [4]; 100 μM Flecainide, strain UG1755, n = 15, before application 83 ± 13)	EC50 [2]
O=C(N[C@@H]1CCC[C@H]1OCc1ccccc1)c1csc(Nc2ccccc2)n1 [Compound 48, 2-phenylaminothiazole-4-carboxylic acid (1R,2R)-2-(benzyloxycyclopent-1-yl) amide]	14.9	2 µM	29.8 µM	5.61	–	–	–
Cc1nc(Nc2ccc(Br)cc2)sc1C(=O)NCc1ccc([N+](=O)[O-])cc1 [Compound 23, 2-(4-bromo-phenylamino)-4-methyl-thiazole-5-carboxylic acid 4-nitro-benzylamide]	2.8	14.6 µM	41 µM	6.26	–	–	–
O=C(NCC1CCCCN1)c1cc(OCC(F)(F)F)ccc1OCC(F)(F)F (centres unmarked) [Flecainide]	–	–	–	–	restored to normal action potentials	53 ± 24%	–
O=C(N[C@@H]1CCC[C@H]1OCc1ccccc1)c1csc(Nc2ccc(Cl)cc2)n1 [Compound 40, 2-(4-chloro-phenylamino)-thiazole-4-carboxylic acid (1R,2R)-2-(benzyloxycyclopent-1-yl) amide]	>2.5	12.1 µM	–	5.46	–	–	> 30 µM
2-(4-bromo-phenylamino)-4-methyl-thiazole-5-carboxylic acid (1R,2R)-2-(benzyloxycyclopent-1-yl) amide [Compound 25]	>25	10.3 µM	–	5.88	–	–	> 30 µM
Cc1nc(Nc2ccc(Br)cc2)sc1C(=O)NCc1ccccc1 [Compound 20, 2-(4-bromo-phenylamino)-4-methyl-thiazole-5-carboxylic acid benzylamide]	>2.3	25 µM	> 60 µM	5.76	–	–	–
O=C(N[C@@H]1CCC[C@H]1OCc1ccccc1)c1csc(Nc2ccc(F)cc2)n1 [Compound 37, 2-(4-fluoro-phenylamino)-thiazole-4-carboxylic acid (1R,2R)-2-(benzyloxycyclopent-1-yl) amide]	3.8	6 µM	23 µM	–	–	–	–
Nc1ccncc1 [4-aminopyridine]	–	–	–	–	restored to normal action potentials	–	–
